Results as given in patent publication US12384808B2, “Modulators of TNF-α activity” (Forward Therapeutics, Inc., priority 2022, dated 2025).

molecular target: TNFα (Homo sapiens, UniProt P01375); assay: TNFα Induced HEK Blue Cellular Assay; assay type: cell-based; conditions: HEK Blue TNFα reporter cells, TNFα 100 pg/ml, 24 hrs at 37° C., secreted alkaline phosphatase (QUANTI-Blue) read at 620 nm; read-out: IC50 value
How it was run: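 Reporter cells (10,000/well, DMEM + 10% FBS) with compound (final […] to 0.5 nM) stimulated with 100 pg/ml TNFα, 24 h at 37 °C, 5% CO2. Secreted alkaline phosphatase read at 620 nm; IC50 by 4-parameter logistic fit after background correction against stimulated/unstimulated DMSO controls.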

TNFα, sequence (P01375 77-233 limits assumed): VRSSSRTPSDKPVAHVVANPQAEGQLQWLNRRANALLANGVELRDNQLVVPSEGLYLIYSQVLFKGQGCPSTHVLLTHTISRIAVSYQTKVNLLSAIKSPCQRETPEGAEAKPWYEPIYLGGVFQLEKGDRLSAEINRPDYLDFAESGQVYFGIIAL

| IC50 [nM] | SMILES |
| --- | --- |
| < 100 | CN1C(=O)c2cccc(OC(F)F)c2[C@H]2C[C@@H]1c1nc3ccc(-c4ccc(P(C)(C)=O)c(F)c4F)cc3n12 [Example 36, (1R,11R)-18-(difluoromethoxy)-5-[4-(dimethylphosphoryl)-2,3-difluorophenyl]-12-methyl-2,9,12-triazapentacyclo[9.8.1.0^{2,10}.0^{3,8}.0^{14,19}]icosa-3(8),4,6,9,14(19),15,17-heptaen-13-one] |
| < 100 | CP(C)(=O)c1ccc(-c2ccc3nc4n(c3c2)[C@@H]2C[C@H]4NC(=O)c3cccc(OC(F)F)c32)c(F)c1F [Example 34, (1R,11R)-18-(difluoromethoxy)-5-[4-(dimethylphosphoryl)-2,3-difluorophenyl]-2,9,12-triazapentacyclo[9.8.1.0^{2,10}.0^{3,8}.0^{14,19}]icosa-3(8),4,6,9,14(19),15,17-heptaen-13-one] |
| 100 to 1000 | CP(C)(=O)Cc1cc(F)c(-c2ccc3nc4n(c3c2)[C@@H]2C[C@H]4NC(=O)c3cccc(OC(F)F)c32)cc1F [Example 82, (7R,14R)-1-(difluoromethoxy)-11-(4-((dimethylphosphoryl)methyl)-2,5-difluorophenyl)-6,7-dihydro-7,14-methanobenzo[f]benzo[4,5]imidazo[1,2-a][1,4]diazocin-5(14H)-one] |
| < 100 | [2H]C([2H])([2H])N1C(=O)c2cccc(OC(F)F)c2[C@H]2C[C@@H]1c1nc3ccc(-c4cc(F)c(P(C)(C)=O)c(F)c4)cc3n12 [Example 60, (7R,14R)-1-(difluoromethoxy)-11-(4-(dimethylphosphoryl)-3,5-difluorophenyl)-6-(methyl-d3)-6,7-dihydro-7,14-methanobenzo[f]benzo[4,5]imidazo[1,2-a][1,4]diazocin-5(14H)-one] |
| < 100 | CN1C(=O)c2cccc(OC(F)F)c2[C@H]2C[C@@H]1c1nc3ccc(-c4cnc(P(C)(C)=O)c(F)c4)cc3n12 [Example 4, (7R,14R)-1-(difluoromethoxy)-11-(6-(dimethylphosphoryl)-5-fluoropyridin-3-yl)-6-methyl-6,7-dihydro-7,14-methanobenzo[f]benzo[4,5]imidazo[1,2-a][1,4]diazocin-5(14H)-one] |
| < 100 | [2H]C([2H])([2H])N1C(=O)c2cccc(OC(F)F)c2[C@H]2C[C@@H]1c1nc3ccc(-c4ccc(C(C)P(C)(C)=O)cc4)cc3n12 (single isomer, unassigned) [Example 86, (7R,14R)-1-(difluoromethoxy)-11-(4-((R or S)-1-(dimethylphosphoryl)ethyl)phenyl)-6-(methyl-d3)-6,7-dihydro-7,14-methanobenzo[f]benzo[4,5]imidazo[1,2-a][1,4]diazocin-5(14H)-one] |
| < 100 | [2H]C([2H])([2H])N1C(=O)c2cccc(OC(F)F)c2[C@H]2C[C@@H]1c1nc3ccc(-c4ccc(C(F)(F)P(C)(C)=O)cc4)cc3n12 [Example 95, (7R,14R)-1-(difluoromethoxy)-11-(4-((dimethylphosphoryl)difluoromethyl)phenyl)-6-(methyl-d3)-6,7-dihydro-7,14-methanobenzo[f]benzo[4,5]imidazo[1,2-a][1,4]diazocin-5(14H)-one] |
| < 100 | CP(C)(=O)c1ccc(-c2ccc3nc4n(c3c2F)[C@@H]2C[C@H]4NC(=O)c3cccc(OC(F)F)c32)cc1F [Example 140, (7R,14R)-1-(difluoromethoxy)-11-(4-(dimethylphosphoryl)-3-fluorophenyl)-12-fluoro-6,7-dihydro-7,14-methanobenzo[f]benzo[4,5]imidazo[1,2-a][1,4]diazocin-5(14H)-one] |
| 10000 to 30000 | [2H]C([2H])([2H])N1C(=O)c2cccc(OC(F)F)c2[C@H]2C[C@@H]1c1nc3cc(F)c(-c4cnc(P(C)(C)=O)cc4C)cc3n12 [Example 89, (7R,14R)-1-(difluoromethoxy)-11-(6-(dimethylphosphoryl)-4-methylpyridin-3-yl)-10-fluoro-6-(methyl-d3)-6,7-dihydro-7,14-methanobenzo[f]benzo[4,5]imidazo[1,2-a][1,4]diazocin-5(14H)-one] |
| < 100 | [2H]C([2H])([2H])N1C(=O)c2cccc(OC(F)F)c2[C@H]2C[C@@H]1c1nc3ccc(-c4ccc(P(C)(C)=O)cc4C(F)F)cc3n12 [Example 102, (7R,14R)-1-(difluoromethoxy)-11-(2-(difluoromethyl)-4-(dimethylphosphoryl)phenyl)-6-(methyl-d3)-6,7-dihydro-7,14-methanobenzo[f]benzo[4,5]imidazo[1,2-a][1,4]diazocin-5(14H)-one] |
| < 100 | [2H]C([2H])([2H])N1C(=O)c2cccc(OC(F)F)c2[C@H]2C[C@@H]1c1nc3ccc(-c4ccc(P(C)(C)=O)nc4Cl)cc3n12 [Example 94, (7R,14R)-11-(2-chloro-6-(dimethylphosphoryl)pyridin-3-yl)-1-(difluoromethoxy)-6-(methyl-d3)-6,7-dihydro-7,14-methanobenzo[f]benzo[4,5]imidazo[1,2-a][1,4]diazocin-5(14H)-one] |
| < 100 | [2H]C([2H])([2H])N1C(=O)c2cccc(OC(F)F)c2[C@H]2C[C@@H]1c1nc3ccc(-c4ccc(P(C)(C)=O)c(Cl)c4)cc3n12 [Example 117, (7R,14R)-11-(3-chloro-4-(dimethylphosphoryl)phenyl)-1-(difluoromethoxy)-6-(methyl-d3)-6,7-dihydro-7,14-methanobenzo[f]benzo[4,5]imidazo[1,2-a][1,4]diazocin-5(14H)-one] |
| < 100 | [2H]C([2H])([2H])N1C(=O)c2cccc(OC(F)F)c2[C@H]2C[C@@H]1c1nc3ccc(-c4ccc(C(C)P(C)(C)=O)c(F)c4)cc3n12 (single isomer, unassigned) [Example 100, (7R,14R)-1-(difluoromethoxy)-11-(4-((R or S)-1-(dimethylphosphoryl)ethyl)-3-fluorophenyl)-6-(methyl-d3)-6,7-dihydro-7,14-methanobenzo[f]benzo[4,5]imidazo[1,2-a][1,4]diazocin-5(14H)-one] |
| < 100 | [2H]C([2H])([2H])N1C(=O)c2cccc(OC(F)F)c2[C@H]2C[C@@H]1c1nc3ccc(-c4ccc(P(C)(C)=O)c(F)c4)nc3n12 [Example 141, (7R,14R)-1-(difluoromethoxy)-11-(4-(dimethylphosphoryl)-3-fluorophenyl)-6-(methyl-d3)-6,7-dihydro-7,14-methanobenzo[f]pyrido[3′,2′:4,5]imidazo[1,2-a][1,4]diazocin-5(14H)-one] |
| < 100 | [2H]C([2H])([2H])N1C(=O)c2cccc(OC(F)F)c2[C@H]2C[C@@H]1c1nc3ccc(-c4cc(F)c(P(C)(C)=O)cc4C)cc3n12 [Example 88, (7R,14R)-1-(difluoromethoxy)-11-(4-(dimethylphosphoryl)-5-fluoro-2-methylphenyl)-6-(methyl-d3)-6,7-dihydro-7,14-methanobenzo[f]benzo[4,5]imidazo[1,2-a][1,4]diazocin-5(14H)-one] |
| < 100 | CN1C(=O)c2cccc(OC(F)F)c2[C@H]2C[C@@H]1c1nc3cc(F)c(-c4ccc(P(C)(C)=O)cc4F)cc3n12 [Example 58, (1R,11R)-18-(difluoromethoxy)-5-[4-(dimethylphosphoryl)-2-fluorophenyl]-6-fluoro-12-methyl-2,9,12-triazapentacyclo[9.8.1.0^{2,10}.0^{3,8}.0^{14,19}]icosa-3(8),4,6,9,14(19),15,17-heptaen-13-one] |
| < 100 | [2H]C([2H])([2H])N1C(=O)c2cccc(OC(F)F)c2[C@H]2C[C@@H]1c1nc3cc(F)c(-c4ccc(P(C)(C)=O)cc4F)cc3n12 [Example 61, (7R,14R)-1-(difluoromethoxy)-11-(4-(dimethylphosphoryl)-2-fluorophenyl)-10-fluoro-6-(methyl-d3)-6,7-dihydro-7,14-methanobenzo[f]benzo[4,5]imidazo[1,2-a][1,4]diazocin-5(14H)-one] |
| < 100 | CCP(=O)(CC)c1ccc(-c2ccc3nc4n(c3c2)[C@@H]2C[C@H]4NC(=O)c3cccc(OC(F)F)c32)cn1 [Example 137, (7R,14R)-11-(6-(diethylphosphoryl)pyridin-3-yl)-1-(difluoromethoxy)-6,7-dihydro-7,14-methanobenzo[f]benzo[4,5]imidazo[1,2-a][1,4]diazocin-5(14H)-one] |
| < 100 | CN1C(=O)c2cccc(OC(F)F)c2[C@H]2C[C@@H]1c1nc3cc(F)c(-c4ccc(P(C)(C)=O)c(F)c4F)cc3n12 [Example 55, (1R,11R)-18-(difluoromethoxy)-5-[4-(dimethylphosphoryl)-2,3-difluorophenyl]-6-fluoro-12-methyl-2,9,12-triazapentacyclo[9.8.1.0^{2,10}.0^{3,8}.0^{14,19}]icosa-3(8),4,6,9,14(19),15,17-heptaen-13-one] |
| < 100 | CP(C)(=O)c1ccc(-c2ccc3nc4n(c3c2)[C@@H]2C[C@H]4NC(=O)c3cccc(OC(F)F)c32)c(F)c1 [Example 31, (1R,11R)-18-(difluoromethoxy)-5-[4-(dimethylphosphoryl)-2-fluorophenyl]-2,9,12-triazapentacyclo[9.8.1.0^{2,10}.0^{3,8}.0^{14,19}]icosa-3(8),4,6,9,14(19),15,17-heptaen-13-one] |
| < 100 | CN1C(=O)c2cccc(OC(F)F)c2[C@H]2C[C@@H]1c1nc3ccc(-c4ccc(CP(C)(C)=O)cc4)cc3n12 [Example 33, (1R,11R)-18-(difluoromethoxy)-5-{4-[(dimethylphosphoryl)methyl]phenyl}-12-methyl-2,9,12-triazapentacyclo[9.8.1.0^{2,10}.0^{3,8}.0^{14,19}]icosa-3(8),4,6,9,14(19),15,17-heptaen-13-one] |
| < 100 | CP(C)(=O)Cc1ccc(-c2ccc3nc4n(c3c2)[C@@H]2C[C@H]4NC(=O)c3cccc(OC(F)F)c32)cc1F [Example 72, (7R,14R)-1-(difluoromethoxy)-11-(4-((dimethylphosphoryl)methyl)-3-fluorophenyl)-6,7-dihydro-7,14-methanobenzo[f]benzo[4,5]imidazo[1,2-a][1,4]diazocin-5(14H)-one] |
